Series [1] is classed as physicochemical. On the procedure:
Aqueous Solubility Determination: Approximately 0.5 mL of doubly distilled water is added to 16 to 39 mg of the substance to be measured. The resulting suspension is equilibrated in a temperature-controlled Eppendorf Thermomixer Comfort shaker for 2 h and 24 h at 25° C. at a shaking rate of 600 rpm. After 24 h the solid phase is recovered by filter centrifugation (0.10-μm PVDF membrane) and examined by XRPD. Concentrations in the filtrate after 2 h and 24 h (i.e., saturated solutions) are determined using HPLC. The pH of the saturated solution is determined with a Metrohm 713 pH meter.

Series [2] is described as follows: Water uptake under humidity. The series is classed as physicochemical.

Take “Rosuvastatin hemicalcium salt/crystal form D (1:1 co-crystal with D-sorbitol)”: the solubility result in series [1] is “as good as solid forms of Rosuvastatin calcium previously known”. Also, the “water uptake under humidity” value in series [2] was “less prone to water uptake under humidity”.

(Values after patent US9249108B2, “Multicomponent system of rosuvastatin calcium salt and sorbitol” (BASF SE, priority 2010, dated 2016).)
